Measurements published in patent publication US20180000085A1, “USE OF PICOLINAMIDE COMPOUNDS WITH FUNGICIDAL ACTIVITY” (DOW AGROSCIENCES LLC, priority 2014, published 2018).

Assays:
Zymoseptoria tritici = assay: Leaf blotch of wheat (SEPTTR) disease control on wheat seedlings; format: in vivo; design: key to SEPTTR 1DP, HV activity at 100 ppm (% control rating) / SEPTTR 3DC, HV activity at 100 ppm (% control rating) / SEPTTR disease control, 1DP / SEPTTR disease control, 3DC / SEPTTR 1DP disease control rating, HV activity / SEPTTR 3DC disease control rating, HV activity / SEPTTR 3DC, LV activity at 125.1 g/H (% Control rating) / SEPTTR 1DP, LV activity at 125.1 g/H (% Control rating) / SEPTTR 1DP disease control rating, LV activity at 125.1 g/H / SEPTTR 3DC disease control rating, LV activity at 125.1 g/H / SEPTTR 3DC disease control rating, HV activity at 100 ppm / SEPTTR 1DP disease control rating, HV activity at 100 ppm / HV activity at 100 ppm SEPTTR 3DC (disease control rating) / HV activity at 100 ppm SEPTTR 1DP (disease control rating) / LV activity at 125.1 g/H SEPTTR 1DP (disease control rating) / LV activity at 125.1 g/H SEPTTR 3DC (disease control rating): A: > 80; B: ≤ 80; C: Not Tested; D: No Activity Observed in the Reported Assay; conditions: for SEPTTR 1DP disease control rating, LV activity at 125.1 g/H / SEPTTR 3DC disease control rating, LV activity at 125.1 g/H / LV activity at 125.1 g/H SEPTTR 1DP (disease control rating) / LV activity at 125.1 g/H SEPTTR 3DC (disease control rating) / SEPTTR 1DP, LV activity at 125.1 g/H (% Control rating) / SEPTTR 3DC, LV activity at 125.1 g/H (% Control rating): low volume application; for SEPTTR 1DP disease control rating, LV activity at 125.1 g/H / SEPTTR 1DP disease control rating, HV activity at 100 ppm: 1 day protectant; for SEPTTR 3DC disease control rating, LV activity at 125.1 g/H / SEPTTR 3DC disease control rating, HV activity at 100 ppm: 3 day curative; for LV activity at 125.1 g/H SEPTTR 1DP (disease control rating) / SEPTTR 1DP, LV activity at 125.1 g/H (% Control rating) / SEPTTR 1DP disease control rating, HV activity: 1 Day Protectant; for LV activity at 125.1 g/H SEPTTR 1DP (disease control rating) / LV activity at 125.1 g/H SEPTTR 3DC (disease control rating) / SEPTTR 1DP disease control rating, HV activity / SEPTTR 3DC disease control rating, HV activity: wheat leaf blotch; for LV activity at 125.1 g/H SEPTTR 3DC (disease control rating) / SEPTTR 3DC, LV activity at 125.1 g/H (% Control rating) / SEPTTR 3DC disease control rating, HV activity: 3 Day Curative; for SEPTTR 1DP disease control rating, HV activity / SEPTTR 3DC disease control rating, HV activity: HV application at 100 ppm; for SEPTTR 1DP disease control rating, HV activity at 100 ppm / SEPTTR 3DC disease control rating, HV activity at 100 ppm: high volume application
Puccinia triticina = assay: Wheat brown rust (PUCCRT) disease control on wheat seedlings; format: in vivo; design: key to PUCCRT 3DC, HV activity at 100 ppm (% control rating) / PUCCRT disease control, 3DC / PUCCRT 1DP disease control rating, HV activity / PUCCRT 3DC disease control rating, HV activity / PUCCRT 3DC, LV activity at 125.1 g/H (% Control rating) / PUCCRT 1DP, LV activity at 125.1 g/H (% Control rating) / PUCCRT 3DC disease control rating, LV activity at 125.1 g/H / PUCCRT 1DP disease control rating, LV activity at 125.1 g/H / PUCCRT 3DC disease control rating, HV activity at 100 ppm / PUCCRT 1DP disease control rating, HV activity at 100 ppm / HV activity at 100 ppm PUCCRT 3DC (disease control rating) / LV activity at 125.1 g/H PUCCRT 1DP (disease control rating) / LV activity at 125.1 g/H PUCCRT 3DC (disease control rating): A: > 80; B: ≤ 80; C: Not Tested; D: No Activity Observed in the Reported Assay; conditions: for PUCCRT 1DP disease control rating, LV activity at 125.1 g/H / PUCCRT 3DC disease control rating, LV activity at 125.1 g/H / LV activity at 125.1 g/H PUCCRT 1DP (disease control rating) / LV activity at 125.1 g/H PUCCRT 3DC (disease control rating) / PUCCRT 1DP, LV activity at 125.1 g/H (% Control rating) / PUCCRT 3DC, LV activity at 125.1 g/H (% Control rating): low volume application; for PUCCRT 1DP disease control rating, LV activity at 125.1 g/H / PUCCRT 1DP disease control rating, HV activity at 100 ppm: 1 day protectant; for PUCCRT 3DC disease control rating, LV activity at 125.1 g/H / PUCCRT 3DC disease control rating, HV activity at 100 ppm: 3 day curative; for LV activity at 125.1 g/H PUCCRT 1DP (disease control rating) / PUCCRT 1DP, LV activity at 125.1 g/H (% Control rating) / PUCCRT 1DP disease control rating, HV activity: 1 Day Protectant; for LV activity at 125.1 g/H PUCCRT 1DP (disease control rating) / LV activity at 125.1 g/H PUCCRT 3DC (disease control rating) / PUCCRT 1DP disease control rating, HV activity / PUCCRT 3DC disease control rating, HV activity: wheat brown rust; for LV activity at 125.1 g/H PUCCRT 3DC (disease control rating) / PUCCRT 3DC, LV activity at 125.1 g/H (% Control rating) / PUCCRT 3DC disease control rating, HV activity: 3 Day Curative; for PUCCRT 1DP disease control rating, HV activity / PUCCRT 3DC disease control rating, HV activity: HV application at 100 ppm; for PUCCRT 1DP disease control rating, HV activity at 100 ppm / PUCCRT 3DC disease control rating, HV activity at 100 ppm: high volume application

## CC(=O)OCOc1c(Cl)ccnc1C(=O)NC(C)C(=O)OC(C)C(Oc1ccccc1)C(C)C (centres unmarked) [Cmpd 679]
Zymoseptoria tritici
  SEPTTR 1DP disease control rating, LV activity at 125.1 g/H: D
  SEPTTR 3DC disease control rating, LV activity at 125.1 g/H: B (≤ 80)
Puccinia triticina
  PUCCRT 1DP disease control rating, LV activity at 125.1 g/H: B (≤ 80)
  PUCCRT 3DC disease control rating, LV activity at 125.1 g/H: D

## COc1ccnc(C(=O)NC(C)C(=O)OC(C(C)C)C(Oc2ccccc2)C(C)C)c1OCOC(C)=O (centres unmarked) [Cmpd 1094]
Zymoseptoria tritici
  LV activity at 125.1 g/H SEPTTR 1DP (disease control rating): D
  LV activity at 125.1 g/H SEPTTR 3DC (disease control rating): D
Puccinia triticina
  LV activity at 125.1 g/H PUCCRT 1DP (disease control rating): D
  LV activity at 125.1 g/H PUCCRT 3DC (disease control rating): D

## COc1ccnc(C(=O)N[C@@H](C)C(=O)O[C@@H](C)[C@H](Oc2ccc(-c3ccccc3)cc2)C(C)C)c1OCOC(C)=O [Cmpd 612]
Zymoseptoria tritici
  SEPTTR 1DP, LV activity at 125.1 g/H (% Control rating): D
  SEPTTR 3DC, LV activity at 125.1 g/H (% Control rating): B (≤ 80)
Puccinia triticina
  PUCCRT 1DP, LV activity at 125.1 g/H (% Control rating): A (> 80)
  PUCCRT 3DC, LV activity at 125.1 g/H (% Control rating): B (≤ 80)

## COc1ccnc(C(=O)NC(C)C(=O)OC(C)COc2ccccc2)c1OC(C)=O (centres unmarked) [Cmpd 524]
Zymoseptoria tritici
  SEPTTR 1DP, LV activity at 125.1 g/H (% Control rating): B (≤ 80)
  SEPTTR 3DC, LV activity at 125.1 g/H (% Control rating): B (≤ 80)
Puccinia triticina
  PUCCRT 1DP, LV activity at 125.1 g/H (% Control rating): D
  PUCCRT 3DC, LV activity at 125.1 g/H (% Control rating): B (≤ 80)

## C=CC[C@@H](OCc1ccccc1)[C@H](C)OC(=O)[C@H](C)NC(=O)c1nccc(OC)c1O [Cmpd 333, (S)-(2S,3R)-3-(benzyloxy)hex-5-en-2-yl-2-(3-hydroxy-4-methoxypicolinamido)propanoate]
Zymoseptoria tritici
  SEPTTR 1DP disease control rating, HV activity: B (≤ 80)
  SEPTTR 3DC disease control rating, HV activity: B (≤ 80)
Puccinia triticina
  PUCCRT 1DP disease control rating, HV activity: A (> 80)
  PUCCRT 3DC disease control rating, HV activity: A (> 80)

## CC[C@H](NC(=O)c1nccc(OC)c1OCOC(C)=O)C(=O)O[C@@H](C)[C@H](Oc1cc(F)cc(Cl)c1)c1ccccc1 [Cmpd 643]
Zymoseptoria tritici
  SEPTTR 1DP, LV activity at 125.1 g/H (% Control rating): A (> 80)
  SEPTTR 3DC, LV activity at 125.1 g/H (% Control rating): A (> 80)
Puccinia triticina
  PUCCRT 1DP, LV activity at 125.1 g/H (% Control rating): A (> 80)
  PUCCRT 3DC, LV activity at 125.1 g/H (% Control rating): B (≤ 80)

## COc1ccnc(C(=O)N[C@@H](C)C(=O)O[C@@H](C)[C@H](OCC2CC2)C2CC2)c1O [Cmpd 1002]
Zymoseptoria tritici
  SEPTTR 1DP disease control rating, HV activity at 100 ppm: B (≤ 80)
  SEPTTR 3DC disease control rating, HV activity at 100 ppm: B (≤ 80)
Puccinia triticina
  PUCCRT 1DP disease control rating, HV activity at 100 ppm: A (> 80)
  PUCCRT 3DC disease control rating, HV activity at 100 ppm: A (> 80)

## CCC(CC)C(Oc1cc(F)cc(Cl)c1)C(C)OC(=O)C(CC(C)C)NC(=O)c1nccc(OC)c1OC(C)=O (centres unmarked) [Cmpd 688]
Zymoseptoria tritici
  SEPTTR 1DP disease control rating, LV activity at 125.1 g/H: D
  SEPTTR 3DC disease control rating, LV activity at 125.1 g/H: B (≤ 80)
Puccinia triticina
  PUCCRT 1DP disease control rating, LV activity at 125.1 g/H: D
  PUCCRT 3DC disease control rating, LV activity at 125.1 g/H: D

## CCC(C)C(NC(=O)c1nccc(OC)c1O)C(=O)OC(C)C(Oc1ccc(C(F)(F)F)cc1)C(C)C (centres unmarked) [Cmpd 396]
Zymoseptoria tritici
  SEPTTR 1DP disease control rating, HV activity: B (≤ 80)
  SEPTTR 3DC disease control rating, HV activity: B (≤ 80)
Puccinia triticina
  PUCCRT 1DP disease control rating, HV activity: B (≤ 80)
  PUCCRT 3DC disease control rating, HV activity: D

## COc1ccnc(C(=O)N[C@@H](C)C(=O)O[C@@H](C)[C@H](Oc2cccc(Cl)c2)C(C)(C)C)c1OC(C)=O [Cmpd 1055]
Zymoseptoria tritici
  LV activity at 125.1 g/H SEPTTR 1DP (disease control rating): B (≤ 80)
  LV activity at 125.1 g/H SEPTTR 3DC (disease control rating): A (> 80)
Puccinia triticina
  LV activity at 125.1 g/H PUCCRT 1DP (disease control rating): A (> 80)
  LV activity at 125.1 g/H PUCCRT 3DC (disease control rating): A (> 80)

## CCC[C@@H](Oc1cccc(OC)c1)[C@H](C)OC(=O)[C@H](C)NC(=O)c1nccc(OC)c1O [Cmpd 1013]
Zymoseptoria tritici
  SEPTTR 1DP disease control rating, HV activity at 100 ppm: B (≤ 80)
  SEPTTR 3DC disease control rating, HV activity at 100 ppm: B (≤ 80)
Puccinia triticina
  PUCCRT 1DP disease control rating, HV activity at 100 ppm: A (> 80)
  PUCCRT 3DC disease control rating, HV activity at 100 ppm: A (> 80)
